Test results reported in PubChem BioAssay (NCI).
Several values for one entry are separate records, joined by “and”; a condition that tells them apart may be missing. Identical values can stand only once.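 Briefly, cells in 96-well plates were exposed to five compound concentrations for 48 h, and endpoints were estimated by linear interpolation. Here, GI50 denotes the concentration required for 50% inhibition of growth. At the TGI there is no net growth.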

Legend:
Assay in all cases: growth of human tumour cells (NCI), 48 h
UO-31 renal = test system: UO-31 renal
HCT-116 colon = test system: HCT-116 colon
MDA-MB-435 = test system: MDA-MB-435
MDA-MB-231 breast = test system: MDA-MB-231 breast
KM12 colon = test system: KM12 colon
OVCAR-4 ovarian = test system: OVCAR-4 ovarian
ACHN renal = test system: ACHN renal
BT-549 breast = test system: BT-549 breast
SNB-19 CNS = test system: SNB-19 CNS
MCF7 breast = test system: MCF7 breast

Row | SMILES | GI50 (UO-31 renal) | TGI (UO-31 renal) | GI50 (HCT-116 colon) | TGI (HCT-116 colon) | GI50 (MDA-MB-435) | TGI (MDA-MB-435) | GI50 (MDA-MB-231 breast) | TGI (MDA-MB-231 breast) | GI50 (KM12 colon) | TGI (KM12 colon) | GI50 (OVCAR-4 ovarian) | TGI (OVCAR-4 ovarian) | GI50 (ACHN renal) | TGI (ACHN renal) | GI50 (BT-549 breast) | TGI (BT-549 breast) | GI50 (SNB-19 CNS) | TGI (SNB-19 CNS) | GI50 (MCF7 breast) | TGI (MCF7 breast)
1 | C=C1C[C@@H]2O[C@H]3[C@H]4[C@@H](CC[C@@](C)(OC(=O)CCC)[C@H]42)[C@@H](C)C(=O)O[C@@]3(C)CC[C@H]1OO | 17.9 µM | 33.7 µM | 24.3 µM | 54.6 µM | 17 µM | 33.1 µM | 17.9 µM | 33.2 µM | 16.4 µM | 30.9 µM | 19.5 µM | 40.2 µM | 17.3 µM | 31.1 µM | 36 µM | > 100 µM | 53.8 µM | > 100 µM | 20.5 µM | 38.8 µM
2 | COc1ccc(C(O)c2cc3c(N)c(C(=O)Nc4cccc(Br)c4C)sc3nc2C)cc1 (stereo unspecified) | 0.261 µM | > 33.3 µM | 0.141 µM | 7.46 µM | 0.0665 µM | 0.149 µM | 0.462 µM | 8.96 µM | 0.152 µM | 11.7 µM | 2.81 µM | > 33.3 µM | 0.216 µM | > 26.4 µM | 0.479 µM | 15.4 µM | 0.211 µM | > 33.3 µM | 0.116 µM | > 33.3 µM
3 | CC1(C)C2CCC13C(=O)C1OC3(C2)C2C(=O)c3c(ccc4c3ccc3ccccc34)C(=O)C12 (stereo unspecified) | > 100 µM | > 100 µM | > 36.9 µM | > 57 µM | > 62.2 µM | > 100 µM | > 37.2 µM | > 53.2 µM | 57.6 µM | > 100 µM | 56.1 µM | > 100 µM | 57.4 µM | > 100 µM | > 80.3 µM | > 100 µM | > 43.5 µM | > 100 µM | 31.6 µM | > 75.9 µM
4 | CCOC(=O)/C(=C\c1ccc2ccccc2c1)P(=O)(OCC)OCC | 1.72 µM | 4.4 µM | 2.22 µM | 5.08 µM | 2.92 µM | 13.3 µM | 3.57 µM | 13.4 µM | 3.08 µM | 10.9 µM | 4.16 µM | 20.1 µM | 2.31 µM | 6.3 µM | 2.3 µM | 5.88 µM | 4.45 µM | 18.6 µM | 2.14 µM | 7.12 µM
5 | NCCCN=c1ccc2c3c1c(O)c1c(O)ccc(=O)c1c3[nH]n2CCNCCO | 3.78 µM and 14.2 µM | 24.5 µM and 98.1 µM | 2.06 µM and 1.46 µM | 9.67 µM and 20.2 µM | – | 15.4 µM | 2.43 µM | 12.3 µM and 25 µM | 1.88 µM | 11.6 µM and 39 µM | – | 10.5 µM and 20.1 µM | – | 4.52 µM | – | 5.31 µM | 0.821 µM | 6.57 µM and 14.1 µM | 0.796 µM | 21.5 µM and 11.2 µM
6 | CCOC(=O)c1c(CN2CCN(C)CC2)nc2ccc(Cl)cc2c1-c1ccccc1 | 5.98 µM | 19.5 µM | 6.51 µM | 19.1 µM | 2.71 µM | 7.87 µM | 7.16 µM | 21.2 µM | 6.76 µM | 19.1 µM | 4.98 µM | 17.4 µM | 12.2 µM | 25.5 µM | 7.1 µM | 20.8 µM | 12.7 µM | 25.6 µM | 4.15 µM | 16.6 µM
7 | O=c1cccc(Cl)[nH]1 | – | > 100 µM | – | > 100 µM | – | > 100 µM | – | > 100 µM | – | > 100 µM | – | > 100 µM | – | > 100 µM | – | > 100 µM | – | > 100 µM | – | > 100 µM
8 | Cc1nc2ccccc2c(=O)n1/N=C(\N=Nc1cc(Cl)ccc1Cl)c1ccccc1 | – | > 31.6 µM | – | > 31.6 µM | – | 44.1 µM | – | > 100 µM | – | 25.8 µM | – | > 100 µM | – | > 100 µM | – | > 100 µM | – | > 31.6 µM | – | > 100 µM
9 | COc1cc2cc(Oc3cccc(NC(=O)Nc4cc(C(F)(F)F)cc(C(F)(F)F)c4)c3)c(C)nc2cc1OC | 0.266 µM | 1.65 µM | 0.589 µM | 1.92 µM | 1.8 µM | 4.28 µM | 1.08 µM | 2.49 µM | 0.918 µM | 2.46 µM | 1.22 µM | 4.44 µM | 0.39 µM | 1.69 µM | 1.75 µM | 3.76 µM | 0.654 µM | 2.16 µM | 0.544 µM | 2.36 µM
10 | CC(=O)Oc1cc2cnc3c4cc(OC(C)=O)c(OC(C)=O)cc4ccc3c2cc1OC(C)=O | 0.472 µM | > 100 µM | 0.471 µM | 3.86 µM | 0.506 µM | > 100 µM | 1.02 µM | > 100 µM | 2.47 µM | > 100 µM | 1.35 µM | > 100 µM | 1.19 µM | > 100 µM | 1.35 µM | 8.4 µM | 0.594 µM | 65.9 µM | 0.638 µM | > 100 µM
11 | COc1cc2ncnc(Oc3cccc(NC(=O)Nc4cc(C(C)(C)C(F)(F)F)on4)c3)c2cc1OC | 0.552 µM and 0.788 µM | 10.1 µM and > 7.68 µM | 0.618 µM and 0.843 µM | 11 µM and > 10 µM | 0.335 µM and 0.484 µM | 5.74 µM and > 10 µM | 1.03 µM and 0.571 µM | 4.44 µM and 7.3 µM | 3.4 µM and 5.28 µM | 14 µM and > 10 µM | 2.15 µM and 2.8 µM | > 100 µM | 0.438 µM and 0.598 µM | 12.9 µM and > 10 µM | 2.4 µM and 3.89 µM | 8.78 µM and > 10 µM | 4.5 µM and 4.99 µM | > 100 µM | 2.79 µM and 3.18 µM | 15 µM and > 10 µM
12 | O=C1Nc2ccc3c(c2/C1=C\c1cc2c(cc1Br)OCO2)OCO3 | 0.191 µM | 2.13 µM | 0.376 µM | 1.72 µM | 0.106 µM | 0.305 µM | 0.793 µM | 3.27 µM | 0.307 µM | 1.43 µM | 1.7 µM | 5.14 µM | 0.689 µM | 6.55 µM | 0.71 µM | 39.5 µM | 0.552 µM | 7.04 µM | 0.351 µM | 2.87 µM
13 | N#Cc1cc(S(=O)(=O)Nc2nc3cc(Cl)ccc3o2)c(SCc2ccccc2)cc1Cl | 12.3 µM | 24.7 µM | 15.4 µM | 28.7 µM | 16.2 µM | 29.7 µM | 10.7 µM | 22.5 µM | 14.9 µM | 28.1 µM | 15.9 µM | 35.1 µM | 13.9 µM | 26.8 µM | 13.4 µM | 26.2 µM | 13.6 µM | 26.5 µM | 17.3 µM | 33.3 µM
